Values of other authors in patent US11452288B1, “Innocuous sterilant using hemocyanin and functionalized fullerenes with broad-spectrum intracellular and interstitial microbiocidal and radical scavenging effects for packaged matter, biologics and organics including liquids, gases, tissue, organs, cells, and limbs with copper mediated oxygenation …” (priority 2022, dated 2022).

Legend:
[1] = system: endothelial; settings: optimal antifungal concentrations in the nutrient media
[2] = system: fungal donor rim cultures; settings: additive to Optisol-GS, compared with Optisol-GS alone

Compound | endothelial toxicity [1] | rate of positive fungal donor rim cultures [2]
C[C@@H]1[C@H](O)[C@@H](C)/C=C/C=C/C=C/C=C/C=C/C=C/C=C/[C@H](O[C@@H]2O[C@H](C)[C@@H](O)[C@H](N)[C@@H]2O)C[C@@H]2O[C@](O)(C[C@@H](O)C[C@@H](O)[C@H](O)CC[C@@H](O)C[C@@H](O)CC(=O)O[C@H]1C)C[C@H](O)[C@H]2C(=O)O [Amphotericin B] | significant endothelial toxicity | 
C[C@@H](c1ncncc1F)[C@](O)(Cn1cncn1)c1ccc(F)cc1F [voriconazole] |  | significant reduction
